Laboratory results published in PMC9139979, “Features of ZED1227: The First-In-Class Tissue Transglutaminase Inhibitor Undergoing Clinical Evaluation for the Treatment of Celiac Disease” (Cells, 2022).
pIC50: −log10 of the molar value. Where “and” joins values, the source holds several entries; their conditions need not be identical. Equal entries are not always repeated. Entries after “also recorded” stand apart in the source; their conditions may differ. Where two headings read alike, the source gives them in different places.

Legend:
[1] = logD by shake flask method (octanol/PBS pH 7.4); assay type: physicochemical
Experimental: The logD value (distribution coefficient) of the compound was determined by means of the shake flask method, measuring the distribution of the solute in octanol and phosphate-buffered saline (PBS, pH 7.4). The concentration of ZED1227 in the immiscible solvents was determined by HPLC (vide supra). The stability in PBS (pH 7.4 or acidified to pH 5.0), in artificial gastric, and intestinal fluid was calculated as the percentage of residual parent compound after incubation for 24 h at 37 °C, using an initial concentration of 100 μM.

[2] = target: T1, hTG2 (Homo sapiens, UniProt P21980); test: Fluorescent transamidation assay (DCC-assay), hTG2; assay type: biochemical; conditions: recombinant human TG2, transamidation assay
T1 construct: purchased Zedira T022
T1 sequence (P21980 1-687): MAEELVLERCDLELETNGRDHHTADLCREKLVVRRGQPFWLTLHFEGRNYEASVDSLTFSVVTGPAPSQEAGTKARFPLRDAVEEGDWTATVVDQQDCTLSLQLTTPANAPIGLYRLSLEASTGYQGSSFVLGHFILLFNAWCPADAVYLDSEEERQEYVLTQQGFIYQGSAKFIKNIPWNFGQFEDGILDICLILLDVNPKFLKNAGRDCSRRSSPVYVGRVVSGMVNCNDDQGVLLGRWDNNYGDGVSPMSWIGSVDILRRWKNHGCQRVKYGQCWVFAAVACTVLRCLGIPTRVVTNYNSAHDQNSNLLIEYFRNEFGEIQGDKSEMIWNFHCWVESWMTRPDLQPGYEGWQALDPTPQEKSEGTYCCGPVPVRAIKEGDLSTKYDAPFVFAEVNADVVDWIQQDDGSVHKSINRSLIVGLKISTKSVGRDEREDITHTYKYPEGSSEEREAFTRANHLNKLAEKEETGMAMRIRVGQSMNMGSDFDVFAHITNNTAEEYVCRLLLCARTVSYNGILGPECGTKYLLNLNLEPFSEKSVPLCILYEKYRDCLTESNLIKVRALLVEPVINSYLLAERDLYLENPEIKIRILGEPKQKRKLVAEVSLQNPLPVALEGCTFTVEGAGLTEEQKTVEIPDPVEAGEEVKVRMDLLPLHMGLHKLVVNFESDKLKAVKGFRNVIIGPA
Experimental: Inhibition data were determined using the fluorescent transamidation assay (dansylcadaverine incorporation into glutamine-donor substrate N,N-dimethyl casein, DCC-assay). Briefly, to 15 μL of ZED1227 solution (dissolved and serial diluted in 2% (v/v) DMSO/assay buffer), 285 μL assay buffer [47.5 mM tris(hydroxymethyl)aminomethane, 9.5 mM CaCl2, 9.5 mM glutathione, 2.4% (v/v) glycerol, 190 mM NaCl, pH 8.0] containing dansylcadaverine (15.9 μM), N,N-dimethyl casein (3.8 μM) and the indicated recombinant transglutaminase enzyme [0.95 μg/mL hTG1 (T035), 0.81 μg/mL hTG2 (T022), 0.83 μg/mL hTG6 (T021), all from Zedira] were added, mixed and the kinetic measurement started immediately. In the case of hFXIII-A2 (0.83 μg/mL, T027, Zedira), the assay buffer contained human α-thrombin (5.2 × 10^−3 U/μL, T056, Zedira). The mixture was incubated for 20 min at room temperature to activate FXIII. In the case of hTG3a (0.81 μg/mL, T013, Zedira), full enzymatic activity was obtained by incubation for 80 min at 37 °C in assay buffer before addition of the inhibitor and start of the kinetics.
Fluorescence emission was continuously monitored for 30 min at λem = 500 nm (λex = 330 nm) and 37 °C using a CLARIOstar fluorescence plate reader (BMG Labtech, Ortenberg, Germany). All measurements were performed in triplicate. The respective IC50 (and IC90 for TG2) values were calculated by non-linear regression using the MARS software package (BMG Labtech). An irreversible-acting inhibitor, such as ZED1227, should, correctly, be characterized by the second-order rate constant k2nd, as detailed by Keillor [46]. However, such data are rather abstract and difficult to comprehend.
To facilitate comparability during lead structure optimization and to roughly estimate concentrations needed at the target site, the apparent IC50 values (calculated by four-parameter non-linear fit by MARS software) for irreversible inhibitors are more instructive and are therefore reported. Further, we report the potency of commercially available reference inhibitors Z006 (“Z-DON”), Z013 (ZED754), and T101 (all Zedira). To gain deeper mechanistic insight, we discuss the second-order rate constants (k2nd) published for Z006 and ZED754 in relation to their respective IC50 values.

[3] = Solubility in PBS (pH 7.4) and diluted HCl (pH 1.1) by HPLC; assay type: physicochemical
[4] = system: Huh7 cells; test: EZ4U viability assay, Huh7; assay type: cell-based; conditions: up to 1,000 μM, 48 h
Experimental: Cytotoxicological analysis of ZED1227 was performed using Huh7 (human liver carcinoma, CLS Cell Lines Service GmbH, Eppelheim, Germany) and Caco-2 cells (human epithelial colorectal adenocarcinoma, Sigma Aldrich, Taufkirchen, Germany) with respect to the effect on proliferation and viability, according to the assay protocols provided by the manufacturers of the respective kits. The Cell Proliferation ELISA (BrdU, colorimetric) was purchased from Roche (Mannheim, Germany), whereas the Cell Proliferation and Cytotoxicity Assay EZ4U was purchased from Biomedica (Vienna, Austria). […]
The EZ4U assay (determination of viability) was performed by incubating the cells with ZED1227 working solution (1% DMSO in culture medium) up to a concentration of 1,000 μM for 48 h, followed by addition of a yellow tetrazolium reagent (not further specified) into the culture medium. The non-toxic tetrazolium salts were reduced to red-colored formazan which was quantified spectrophotometrically. […]

Work on `CCC(CC)CNC(=O)Cn1cccc(NC(=O)[C@H](CC/C=C/C(=O)OC)NC(=O)c2cncn2C)c1=O` [ZED1227, (S,E)-Methyl 7-(1-(2-(2-ethylbutylamino)-2-oxoethyl)-2-oxo-1,2-dihydropyridin-3-ylamino)-6-(1-methyl-1H-imidazole-5-carboxamido)-7-oxohept-2-enoate] yielded a logD [1] of 2, an IC90 [2] of 300 nM and a pIC50 ([2]; apparent IC50 of irreversible inhibitor, read-out: App. IC50 hTG2) of 7.28. For the same molecule, the solubility ([3]; phosphate-buffered saline, aqueous buffer, PBS pH 7.4, read-out: Solubility at pH 7.4) was 100 µM and 50 µg/mL, the solubility ([3]; simulated gastric fluid, diluted HCl pH 1.1, read-out: Solubility at pH 1.1) was 48900 µM and 25900 µg/mL and the “Cytotoxicity: Viability, Huh7 cells” value [4] was “not cytotoxic up to 1,000 μM; also recorded: no effect up to 1,000 μM no effect up to 1,000 μM no effect up to 1,000 μM no effect up to 1,000 μM”.
